Measurements from paper PMC10675340, “Preparation, Radiolabeling with ^68Ga/^177Lu and Preclinical Evaluation of Novel Angiotensin Peptide Analog: A New Class of Peptides for Breast Cancer Targeting” (Pharmaceuticals, 2023).
Where a SMILES comes first, the peptide text is derived from it. Where no end group is shown, it is not given here. [ ]: non-standard residue; d: D form. The star is where a group is joined. DOTA = O=C(O)CN1CCN(CC(=O)O)CCN(CC(=O)*)CCN(CC(=O)O)CC1; βAla = NCCC(=O)O

Columns and labels:
[1] = In vitro metabolic stability in human plasma; type: in vitro ADME; settings: 37 °C, radio-HPLC
Protocol: High proteolytic stability is an important aspect of the tumor-targeting peptides to deliver the highest possible tumor-targeting effect. The extent of proteolytic degradation of the ^177Lu-AngII peptide was determined by incubating the radiolabeled peptide with human plasma at 37° C for up to 5 h. […] A limited release of free ^177Lu amount (up to 10%) indicates the high in vitro plasma stability of the radiolabeled peptide, with low enzymatic breakdown by plasma proteases (Figure 2).
Human plasma was obtained from the institutional blood bank from volunteers’ blood donors (with consent). The metabolic stability of ^177Lu-DOTA-AngII peptide was determined following a method essentially as described previously. In summary, the radiolabeled peptide (50 μL) was mixed with plasma (400 μL) and incubated in duplicate at 37 °C for up to 5 h. After incubation, the plasma proteins were precipitated using a mixture of CH3CN/EtOH (1:1 v/v, 400 μL). The supernatant layer was collected by centrifugation (5000 rpm for 5 min), filtered through a 0.2-µm Millex GP filter, and analyzed by radio-HPLC to assess the product stability.

Balb/c mice = assay: In vivo biodistribution in normal Balb/c mice; design: species or system mouse; settings: Balb/c mice
Protocol: The in vivo biodistribution of ^68Ga-labeled AngII peptide analog was carried out in female Balb/c mice, at various time points, to observe the uptake in the normal tissues and organs and find the excretion route of the radiolabeled peptides. […] Low uptake and retention of the radiopeptide in the liver varying from 1.54 ± 0.28% ID/g at 45 min to 0.48 ± 0.17% ID/g at 2 h p.i. is probably related to the high hydrophilicity (log p = −0.55 ± 0.11) of the ^68Ga-labeled AngII peptide analog. […] The efficient clearance from the kidneys is possibly associated with the urinary excretion of the radiopeptide. […] The low amount of uptake in the bone (up to 0.37 ± 0.14% ID/g) (Table 2) indicates the minimal breakdown of the ^68Ga-labeled AngII peptide complex in vivo combined with the minor release of free ^68Ga. These findings are in agreement with the high in vitro metabolic stability observed in the human plasma for the radiolabeled AngII peptide. The accumulation in the extremely vascular organ lungs was also low (up to 1.11 ± 0.37% ID/g) signifying a low trapping by the lungs.
Approval from the Institutional Animal Care and Use Committee was obtained for the animal protocol used. Additionally, strict international regulations govern the safe and proper use of laboratory animals employed during animal experiments. In vivo, biodistribution was performed on healthy female mice according to the methods essentially described previously. In summary, Balb/c mice (n = 5 per time point, body mass 20–25 g) at 45 min and 2 h were administered with the HPLC-purified AngII peptide (~1 µg, 100 µL, 0.925–1.85 MBq; 25–50 µCi) via lateral tail vein injection. At the specified time points, the animals were sacrificed by cervical dislocation. A fraction of the blood was collected from cardiac puncture. Urine was also collected and measured with the bladder contents. Major organs, such as the lungs, pancreas, stomach, liver, heart, kidneys, and intestines were isolated, weighed, and measured for radioactivity. The uptake values of the radiolabeled peptide in different organs are expressed as the percent injected dose per gram (% ID/g) of tissue/organ. The radioactivity in the urine with bladder contents is shown as the percent of the injected dose per organ (% ID/organ). To calculate the injected dose, a standard (20-fold dilution of injected dose) was prepared and counted together with animal tissue samples.

[2] = tested on: human breast cancer cells; settings: cited from earlier work
Protocol: The values were 27.73 ± 5.97 nM for MDA-MB-231 and 35.14 ± 7.09 nM for the MCF7 breast cancer cell line. Thes ...

remaining at 5 h ([1]; human plasma 400 μL + 50 μL radiopeptide, duplicate, CH3CN/EtOH precipitation, read-out: Radioactivity still associated with the radiolabeled peptide) [%]	Release of free ^177Lu ([1]; human plasma, 5 h)	Molecule	Biological and excretion pattern compared with the ^68Ga-labeled counterpart (Balb/c mice)	Kd [2] [nM]
> 90	up to 10%	CC[C@H](C)[C@H](NC(=O)[C@H](Cc1ccc(O)cc1)NC(=O)[C@@H](NC(=O)[C@H](CCCNC(=N)N)NC(=O)[C@H](CC(=O)O)NC(=O)CCNC(=O)[C@H](CCCCN)NC(=O)CN1CCN(CC(=O)O)CCN(CC(=O)O)CCN(CC(=O)O)CC1)C(C)C)C(=O)N[C@@H](Cc1c[nH]cn1)C(=O)N1CCC[C@H]1C(=O)N[C@@H](Cc1ccccc1)C(=O)N[C@@H](Cc1c[nH]c2ccccc12)C(=O)N[C@@H](CCCCN)C(=O)N[C@@H](Cc1ccc(O)cc1)C(N)=O [^177Lu-DOTA-AngII peptide, metal not drawn] ({DOTA}-K[βAla]DRVYIHPFWKY-NH2)	more or less the same biological and excretion pattern	
		^125I-angiotensin II: radioiodinated angiotensin II from the literature, ref 13 (DRVYIHPF; also: radioiodinated (125I label), site not given here; UniProt P01019 25-32, looked up)		~60
